Test results taken from US7029870B1 (priority 1997, dated 2006).

Key:
α2/β1/ε GABAA receptors [1] = target: T1, α2/β1/ε GABAA receptors (Homo sapiens, UniProt P18505+P47869+P78334, S102A); conditions: α2/β1/ε subunits
T1 sequence (P47869 29-451): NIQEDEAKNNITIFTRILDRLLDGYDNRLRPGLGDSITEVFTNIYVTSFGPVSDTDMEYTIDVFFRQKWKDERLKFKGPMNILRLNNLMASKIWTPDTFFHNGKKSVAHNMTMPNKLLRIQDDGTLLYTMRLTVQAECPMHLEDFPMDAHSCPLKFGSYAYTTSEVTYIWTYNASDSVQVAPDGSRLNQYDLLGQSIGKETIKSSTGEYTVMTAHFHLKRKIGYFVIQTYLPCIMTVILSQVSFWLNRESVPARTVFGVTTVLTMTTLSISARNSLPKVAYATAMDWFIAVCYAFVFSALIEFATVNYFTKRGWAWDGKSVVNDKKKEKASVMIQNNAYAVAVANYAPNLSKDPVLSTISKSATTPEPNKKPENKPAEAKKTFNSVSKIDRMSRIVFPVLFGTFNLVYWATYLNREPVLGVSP
T1 sequence (P18505 26-474): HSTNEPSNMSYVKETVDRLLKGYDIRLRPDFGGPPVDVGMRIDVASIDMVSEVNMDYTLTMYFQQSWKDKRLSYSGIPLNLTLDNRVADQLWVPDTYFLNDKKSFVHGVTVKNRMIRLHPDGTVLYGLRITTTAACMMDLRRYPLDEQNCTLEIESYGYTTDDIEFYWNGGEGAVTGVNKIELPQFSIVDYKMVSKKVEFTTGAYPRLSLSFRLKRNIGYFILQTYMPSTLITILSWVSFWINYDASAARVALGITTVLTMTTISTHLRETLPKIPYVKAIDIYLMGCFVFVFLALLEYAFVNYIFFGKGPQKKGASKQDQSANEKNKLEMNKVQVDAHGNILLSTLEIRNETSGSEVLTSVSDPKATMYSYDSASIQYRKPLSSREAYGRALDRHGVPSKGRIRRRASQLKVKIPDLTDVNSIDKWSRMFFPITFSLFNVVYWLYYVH
T1 sequence (P78334 23-506 S102A): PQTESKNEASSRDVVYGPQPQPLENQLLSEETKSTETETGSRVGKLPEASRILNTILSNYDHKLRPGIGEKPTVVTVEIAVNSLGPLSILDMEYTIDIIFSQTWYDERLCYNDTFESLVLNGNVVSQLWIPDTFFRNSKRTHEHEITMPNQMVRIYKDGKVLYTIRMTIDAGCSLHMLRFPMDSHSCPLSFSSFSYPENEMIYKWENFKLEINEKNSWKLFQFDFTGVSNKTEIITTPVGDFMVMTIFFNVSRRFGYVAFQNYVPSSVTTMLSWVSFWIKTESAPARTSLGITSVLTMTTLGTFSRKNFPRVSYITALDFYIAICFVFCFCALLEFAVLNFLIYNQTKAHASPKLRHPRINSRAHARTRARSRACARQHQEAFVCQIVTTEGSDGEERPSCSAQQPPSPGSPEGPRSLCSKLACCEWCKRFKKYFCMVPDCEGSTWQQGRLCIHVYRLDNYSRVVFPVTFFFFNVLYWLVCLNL

α2/β1/ε GABAA receptors [2] = target: T1, α2/β1/ε GABAA receptors; format: cell-based; parameters: The ε-subunit open reading frame was amplified from a hippocampal cDNA library; expressed in transfected cells; host or cells: HEK-293 (transient, calcium phosphate); conditions: for Block of GABA-evoked currents: inhibitor 10 μM, bath applied
α/β/ε GABAA receptors = assay: Benzodiazepine radioligand binding to membranes of cells transfected with α-, β- and ε-subunits; parameters: species or system human, rat; conditions: radioligand 1–50 nM
α1/β3/ε GABAA receptors = target: T2, α1/β3/ε GABAA receptors (UniProt P28472+P62813+P78334, S102A); parameters: species or system rat α1, human β3, human ε; conditions: α1/β3/ε subunits; read-out: Maximal stimulation of [3H]muscimol binding to cell membranes
T2 construct: The ε-subunit open reading frame was amplified from a hippocampal cDNA library; expressed in transfected cells; host or cells: HEK-293 (transient, calcium phosphate); membranes prepared from the transfected cells

[3] = tested on: α/β/ε GABAA receptors (α2/β1/ε or α1/β3/ε)

5α-pregnan-3α-ol-20-one [pregnanolone] was tested, and the “Effect on [35S]TBPS binding” value (α2/β1/ε GABAA receptors [1]) was “no stimulatory phase”, the “Effect on submaximal GABA-activated currents” value (α2/β1/ε GABAA receptors [2]; concentrations up to 100 nM, α2/β1/ε) was “No significant effects” and the “Potentiation of submaximal GABA-activated currents” value (α2/β1/ε GABAA receptors [2]; high concentrations of the steroid, α2/β1/ε) was “up to 73%”.

NCCCC(=O)O [GABA, γ-aminobutyric acid] was tested, and the “Reversal potential of GABA-evoked currents” value (α2/β1/ε GABAA receptors [2]; 100 μM GABA, α2/β1/ε, linear fit) was 5.7 mV and the “Hill slope of GABA concentration-response” value (α2/β1/ε GABAA receptors [2]; α2/β1/ε cDNAs) was 1.1.

In the case of CCOC(=O)c1ncn2c1CN(C)C(=O)c1cc(F)ccc1-2 [[^3H]flumazenil, flumazenil], the “Binding to transfected cell membranes” value (α/β/ε GABAA receptors) is reported as “did not bind”.

In the case of CN1C(=O)CN=C(c2ccccc2F)c2cc([N+](=O)[O-])ccc21 [[^3H]flunitrazepam, flunitrazepam], the “Binding to transfected cell membranes” value (α/β/ε GABAA receptors) is reported as “did not bind”.

With CN1CCc2cc3c(cc2[C@H]1[C@@H]1OC(=O)c2c1ccc1c2OCO1)OCO3 [bicuculline] the “Block of GABA-evoked currents” value (α2/β1/ε GABAA receptors [2]; α2/β1/ε) was 73.6±9.3%.

In the case of CCCC(C)C1(CC)C(=O)NC(=O)NC1=O (stereo not drawn) [pentobarbital], the Emax (α1/β3/ε GABAA receptors) is reported as under 15% and the “Enhancement of GABA-evoked currents” value [3] is reported as “blocked the ability”.

CC(C)c1cccc(C(C)C)c1O [propofol, 2,6-diisopropylphenol] was tested, and the “Enhancement of GABA-evoked currents” value [3] was “blocked the ability”.

With picrotoxin the “Block of GABA-evoked currents” value (α2/β1/ε GABAA receptors [2]; α2/β1/ε) was 82.5±7.4%.
